Consider 52 molecules from PubChem BioAssay AID1996.

In brackets after ≈: the same amount, converted by molar mass.

The conditions of the data set: buffer; pH 7.4; 200.0 µM.
For orientation: solubility (kinetic) means the concentration staying in solution when a stock, usually in DMSO, is diluted into the medium. Turning to `COc1ccc2nc(NC(=O)c3ccco3)sc2c1`, the solubility (kinetic) stood at 7.4 µg/mL (≈ 27 µM).

Molecule `CC(=O)Nc1nccc(-c2cc(-c3ccccc3)no2)n1` showed a kinetic solubility of 2.1 µg/mL (≈ 7.49 µM).

Regarding `CCCOc1ccc(N2C(=O)CC(N(CCCO)C(=O)CC)C2=O)cc1` (configuration not stated), the solubility (kinetic) is more than 54.4 µg/mL.

With `CSc1ccccc1NC(=O)c1cc(-c2ccco2)on1`, the solubility (kinetic) turned out to be 1.1 µg/mL (≈ 3.66 µM).

In the case of `Cc1ccc(NC(=S)NC(=O)C2CC2)c(C)c1`, the solubility (kinetic) was 5.9 µg/mL (≈ 23.8 µM).

Molecule `O=C(O)c1cccc(OCCN2CCCC2=O)c1` had a solubility (kinetic) of 34.6 µg/mL (≈ 139 µM).

With `O=C(NC(=S)N1CCN(C/C=C/c2ccccc2)CC1)c1ccco1`, the kinetic solubility is more than 53.3 µg/mL.

The molecule `CC(=O)NC(C)Cc1cn(Cc2ccccc2)c2ccccc12` (configuration not stated) returned a solubility (kinetic) of more than 46 µg/mL.

`CN1CCC(CN)(N2CCN(c3ccccc3)CC2)CC1` showed a kinetic solubility of 41.9 µg/mL (≈ 145 µM).

The molecule `CN(C1CCS(=O)(=O)C1)S(=O)(=O)c1ccc2ccccc2c1` (configuration not stated) had a solubility (kinetic) of 9.2 µg/mL (≈ 27.1 µM).

With `Cc1nc(NC(=O)CN2CC(C)OC(C)C2)sc1C(=O)N(C)C` (configuration not stated), the solubility (kinetic) was found to be 44.2 µg/mL (≈ 130 µM).

Consider `O=C(O)c1cccc(NC(=S)NC(=O)c2cncc(Br)c2)c1`, for which the kinetic solubility was more than 57 µg/mL.

As for `O=C(Nc1nc2cc3c(cc2s1)OCO3)c1ccc(N2C(=O)CCC2=O)cc1`, the solubility (kinetic) was 1.1 µg/mL (≈ 2.78 µM).

On to `CC(=O)c1c(C)[nH]c(C(=O)Nc2ccccc2Cl)c1C`, for which the kinetic solubility turned out to be 2.7 µg/mL (≈ 9.29 µM).

In turn, `COc1cc(C2=NC(CO)(CO)CO2)cc(OC)c1OC` had a kinetic solubility of more than 44.6 µg/mL.

For `O=C(Cn1c(=O)oc2ccccc21)NCC1COc2ccccc2O1` (configuration not stated), the solubility (kinetic) is more than 51.1 µg/mL.

In the case of `Cc1ccc(S(=O)(=O)/N=C2\C=C(Nc3ccc(O)cc3)C(=O)c3ccccc32)cc1`, the kinetic solubility was found to be 0.9 µg/mL (≈ 2.15 µM).

Turning to `O=C(CCC(=O)Nc1ccccc1)N/N=C/c1cccnc1`, the kinetic solubility was more than 44.4 µg/mL.

As to `Cc1ccc(C(=O)NCCCNC(=O)c2cccnc2)cc1`, the solubility (kinetic) is more than 44.6 µg/mL.

`COc1ccc(Cl)c(OC)c1C(=O)NC(=O)Nc1nc(C)nc(C)n1`: the kinetic solubility was determined as 51.4 µg/mL (≈ 141 µM).

As to `O=C(Nc1cscc1S(=O)(=O)c1ccccc1)c1ccccc1Cl`, the solubility (kinetic) is 10.3 µg/mL (≈ 27.3 µM).

`Nc1cc(N)nc(SCc2ccc(Cl)cc2)n1` yielded a solubility (kinetic) of more than 40 µg/mL.

Consider `Oc1cccc2ccc(N3CCOCC3)nc12`, for which the kinetic solubility was more than 34.5 µg/mL.

On to `Cc1nccn1CC(=O)N/N=C/c1cc(Br)cs1`, for which the kinetic solubility is more than 49.1 µg/mL.

In turn, `CC(C)N(C)CCOC(=O)C1COc2ccccc2O1.Cl` (configuration not stated) registered a kinetic solubility of more than 47.4 µg/mL.

`CCN(CC)c1nc2c(c(=O)n(C)c(=O)n2C)n1CCCc1ccccc1` displayed a solubility (kinetic) of 50.7 µg/mL (≈ 137 µM).

In turn, `CC(C)C(=O)Nc1c(-c2cccc(Cl)c2)c(=O)c2ccccc2n1C` came in with a kinetic solubility of 10.1 µg/mL (≈ 28.5 µM).

For `COc1ccc(C(=O)Nc2cccc3c2CCCC3)cc1OC`, the kinetic solubility was 1 µg/mL (≈ 3.21 µM).

Turning to `CC(=O)Nc1sc(C)c(C)c1C(=O)OCC(=O)Nc1ccc(S(N)(=O)=O)cc1`, the solubility (kinetic) was determined as 8.4 µg/mL (≈ 19.7 µM).

For the molecule `CCOc1ncccc1C(=O)OCC(=O)N1CCC(C)CC1`, the kinetic solubility is more than 46 µg/mL.

On to `Cc1cc(C)cc(NC(=O)CN2C(=O)c3ccccc3C2=O)c1`, for which the solubility (kinetic) turned out to be 0.5 µg/mL (≈ 1.62 µM).

As for `Cc1ccccc1OCC(O)CN1C(=O)c2ccccc2C1=O` (configuration not stated), the solubility (kinetic) was found to be 41.7 µg/mL (≈ 134 µM).

As to `N/C(=N/O)c1cccn1Cc1ccccc1[N+](=O)[O-]`, the solubility (kinetic) is more than 39 µg/mL.

As to `c1ccc(-c2ccccc2OCCCCn2ccnc2)cc1`, the solubility (kinetic) stood at 31.3 µg/mL (≈ 107 µM).

Molecule `Cc1ccc(CNC(=O)c2cc3ccccc3oc2=O)cc1` registered a kinetic solubility of 1.2 µg/mL (≈ 4.09 µM).

`O=C(COC(=O)Cc1ccc([N+](=O)[O-])cc1)NCc1ccc2c(c1)OCO2` registered a solubility (kinetic) of 55.5 µg/mL (≈ 149 µM).

`COc1ccc(C(=O)NC(C)CCc2ccccc2)cc1[N+](=O)[O-]` (configuration not stated) had a kinetic solubility of 20.5 µg/mL (≈ 62.4 µM).

As for `COc1ccc(CNCc2ccc(C)cc2)c(OC)c1.O=C(O)C(=O)O`, the kinetic solubility came to 40.5 µg/mL.

In turn, `CN=C(Nc1cccc(S(=O)(=O)N2CCOCC2)c1)c1ccccc1` showed a solubility (kinetic) of 17.2 µg/mL (≈ 47.9 µM).

`COc1cc(OC)cc(C(=O)NC2CCCCCCC2)c1` returned a solubility (kinetic) of 8.6 µg/mL (≈ 29.5 µM).

`Cc1cccc(NC(=O)CN(c2ccc(F)cc2)S(C)(=O)=O)c1` gave a kinetic solubility of 42.4 µg/mL (≈ 126 µM).

The molecule `Cc1cc(C)n2nc(SCC(=O)N3CC(C)CC(C)C3)nc2n1` (configuration not stated) registered a solubility (kinetic) of more than 50 µg/mL.

`COc1ccc(CCNC2=NCCS2)cc1OC` showed a kinetic solubility of 29.7 µg/mL (≈ 112 µM).

Molecule `Cc1ccc(C)n1-c1ccc(C(=O)NCc2cccnc2)cc1` came in with a kinetic solubility of more than 45.8 µg/mL.

`Nc1cc(S(=O)(=O)N2CCOCC2)ccc1N1CCOCC1` displayed a kinetic solubility of more than 49.1 µg/mL.

As for `O=C1C2C3C=CC(CC3)C2C(=O)N1c1ccc(Cl)cc1` (configuration not stated), the solubility (kinetic) is less than 0.6 µg/mL.

`Cc1noc(C)c1C(=O)OCC(=O)C12CC3CC(CC(C3)C1)C2` displayed a solubility (kinetic) of less than 0.7 µg/mL.

Consider `COc1ccc(/C=C/C(=O)N(C)C2CCCCC2)cc1Br`, for which the kinetic solubility was 18 µg/mL (≈ 51.1 µM).

For the molecule `CNS(=O)(=O)c1ccc(N2CCCC2)c([N+](=O)[O-])c1`, the kinetic solubility is more than 42.8 µg/mL.

`CN(CCS(=O)(=O)c1ccc(Cl)cc1)Cc1cccnc1` came in with a solubility (kinetic) of more than 48.7 µg/mL.

On to `COc1ccc(Cl)cc1NC(=S)NCc1cccs1`, for which the solubility (kinetic) was found to be 37.3 µg/mL (≈ 119 µM).

In the case of `CCNc1nc(NCC)nc(NS(=O)(=O)c2ccc(N)cc2)n1`, the solubility (kinetic) was found to be 36.9 µg/mL (≈ 109 µM).
